Test results reported in PMC5458211, “Mitochondrial VDAC1-based peptides: Attacking oncogenic properties in glioblastoma” (Oncotarget, 2017).
Non-standard residues stand in square brackets, D forms with d. Residues, ends and D or L forms follow the SMILES beside them.

How the values were obtained:
U-87MG cells = assay: Cell death by propidium iodide (PI) staining and flow cytometry, U-87MG; type: cell-based, human; conditions: 6 h at 37°C, serum-free medium, means ± SD (n=3), Fig 1H, read-out: IC50 for inducing cell death
Excerpt: Figure 1 VDAC1-based peptides induce dramatic cell death of several brain tumor-derived cell lines but to lesser extent in primary brain cells A. IHC staining of VDAC1 of human normal brain (n=13) or glioblastoma (n=41) in tissue array slides (Biomax), as described in Materials and methods available online in Supplemental information. Percentages of sections stained at the intensity indicated are shown. […] The VDAC1-derived sequences Δ(1-14)N-terminus and LP4 are in green and pink, respectively. The cell-penetrating peptides Antp and Tf are in orange and blue, respectively. The loop shape of LP4 stabilized by a tryptophan zipper is in purple. The amino acids of Δ(1-14)N-terminus, LP4 and Antp are in the D configuration. […] Cells were harvested, washed twice with PBS and cell death was analyzed by propidium iodide (PI) staining and flow cytometry. […] Cells were harvested, washed twice with PBS and cell death was analyzed by PI staining and flow cytometry. […]
Sections were also hematoxylin-stained and visualized by microscopy. […] Quantitative analysis of immunoblots is shown (n=2-4). […] E. Quantitative analysis of immunoblots. […]
[…] The cells were then trypsinized, centrifuged (1500xg, 5 min), washed with PBS and analyzed for cell death using propidium iodide (PI) staining and flow cytometer (Beckton-Dickinson, San Jose, CA) and BD CellQuest Pro software. […]

[1] = system: mitochondrial membrane potential (ΔΨm) in U-87MG cells; assay: Mitochondrial membrane potential (TMRM); type: cell-based, human; conditions: 3 h
Procedure: Figure 2 Mode of action of VDAC1-based peptides – interacting with- and detaching HK, releasing Cyto c, decreasing ATP level and inducing apoptosis A. Purified HK-II was fluorescently labeled using the NanoTemper protein-labeling Kit BLUE. […] Then, 3-5 μl of the samples were loaded into MST-grade glass capillaries and thermophoresis was measured using a Monolith-NT115 apparatus, as described in Materials and methods available online in Supplemental information. […] The final DMSO concentration in control and peptide-treated cells was 0.07%. Fixed cells were visualized using confocal microscopy (Olympus 1×81), as described in Materials and Methods available online in Supplemental information. […] The levels of HK in the supernatants were quantified and are presented as relative units. D. D-ΔN-Ter-Antp induces mitochondrial inner membrane depolarization analyzed as described in Materials and Methods available online in Supplemental information. […] Cells then were analyzed for Δψ using TMRM. Δψ is presented as percentage of control. […] Release of Cyto c from the mitochondria was analyzed by immunostaining using anti-Cyto c antibodies and confocal microscopy (Olympus 1×81) as described in Materials and Methods available online in Supplemental information. […] Quantification of apoptosis in control and peptide's treated cells are presented bellow the images. […]

CC[C@@H](C)[C@@H](NC(=O)[C@@H](CCCCN)NC(=O)[C@H](NC(=O)[C@@H](CCC(N)=O)NC(=O)[C@@H](CCCNC(=N)N)NC(=O)[C@@H](CC(C)C)NC(=O)CNC(=O)[C@@H](Cc1ccccc1)NC(=O)CNC(=O)[C@@H](Cc1ccc(O)cc1)NC(=O)CNC(=O)[C@@H](CCCCN)NC(=O)[C@H](NC(=O)[C@@H](Cc1ccccc1)NC(=O)[C@H](NC(=O)[C@@H](CC(=O)O)NC(=O)[C@H](N)CCCNC(=N)N)C(C)C)[C@H](C)O)[C@H](C)CC)C(=O)N[C@H](Cc1c[nH]c2ccccc12)C(=O)N[C@H](Cc1ccccc1)C(=O)N[C@H](CCC(N)=O)C(=O)N[C@H](CC(N)=O)C(=O)N[C@H](CCCNC(=N)N)C(=O)N[C@H](CCCNC(=N)N)C(=O)N[C@H](CCSC)C(=O)N[C@H](CCCCN)C(=O)N[C@H](Cc1c[nH]c2ccccc12)C(=O)N[C@H](CCCCN)C(=O)N[C@H](CCCCN)C(=O)O [D-ΔN-Ter-Antp] (H-[dR][dD][dV][dF][dT][dK]G[dY]G[dF]G[dL][dR][dQ][dI][dK][dI][dW][dF][dQ][dN][dR][dR][dM][dK][dW][dK][dK]-OH; N-terminus and C-terminus assumed)
IC50 (U-87MG cells): 3.2 ± 0.6 µM
mitochondrial membrane potential (TMRM fluorescence) [1]: decrease in ΔΨm
